Values quoted from earlier work as cited in patent US20100279989A1, “ORAL CONTRACEPTION WITH TRIMEGESTONE” (GRÜNENTHAL GMBH, priority 2005, published 2010).

Tested on: ovulation
Conditions: p.o.

For `C[C@H](O)C(=O)[C@@]1(C)CC[C@H]2[C@@H]3CCC4=CC(=O)CCC4=C3CC[C@@]21C` [trimegestone, 17β-[(S)-2-hydroxypropanoyl]-17α-methyl-estra-4,9-dien-3-one], the ovulation inhibition dose is given as 0.5 mg per day.
